# Reference: patent publication US20250367114A1, “INHALABLE COMPOSITION FOR ENHANCING ALERTNESS AND VITALITY AND DEVICE FOR SUPPLYING THE INHALABLE COMPOSITION” (KT&G CORPORATION, priority 2024, published 2025)
# Test system: C57BL/6 mice
# Test: general behavioral experiments (LABORAS) after oral administration of caffeine
# Assay type: in vivo
# Conditions: for Distance (distance of movement) / Number of times (number of movements) / Speed (speed of movement) / Time (time of movement): measured for an hour
# Experimental: The experimental animals were C57BL/6 mice (male, 10 weeks old) purchased from KOATECH after receiving approval from the Institutional Animal Care and Use Committee (IACUC). The experimental animals were acclimatized for a week in the breeding room of the bio-efficacy evaluation center of KT&G (temperature 23±2° C., humidity 50±10%, light-dark cycle 12 hours) and then used in the experiments.
# Caffeine was dissolved in a 0.9% saline solution and administered orally to the mice by using Zonde at a dosage of 10 ml/kg, and then general behavioral experiments were conducted. Samples of experimental examples 1 to 3 below were orally administered to the C57BL/6 mice, and then the number of movements, the speed of movement (mm/s), the distance of movement (meter), and the time of movement (sec) for an hour were measured using a LABORAS behavioral device.
# Experimental example 1 was a control group, in which only 10 ml/kg of a 0.9% saline solution was orally administered. In experimental example 2, caffeine was dissolved in a 0.9% saline solution at a dose of 5 mg/kg and orally administered by using Zonde. In experimental example 3, caffeine was dissolved in a 0.9% saline solution at a dose of 30 mg/kg and orally administered by using Zonde. With respect to each of experimental examples 1 to 3, the alertness effect of caffeine was verified through general behavioral experiments, and results thereof are shown in Table 1 below.
# [1] = caffeine 5 mg/kg oral in 0.9% saline
# [2] = caffeine 30 mg/kg oral in 0.9% saline
smiles,measurement,setting,value
"Cn1c(=O)c2c(ncn2C)n(C)c1=O [Experimental example 2, caffeine]",alertness effect (in words),caffeine 5 mg/kg oral,almost no effect
same,Distance (distance of movement),[1],20.48 ± 3.27 meter
same,Number of times (number of movements),[1],532.5 ± 66.33 count
same,Speed (speed of movement),[1],5.689 ± 0.91 mm/s
same,Time (time of movement),[1],405.65 ± 21.89 s
same,alertness effect (in words),caffeine 30 mg/kg oral,alertness effect was observed
same,Distance (distance of movement),[2],33.59 ± 7.85 meter
same,Number of times (number of movements),[2],1034.5 ± 220.05 count
same,Speed (speed of movement),[2],9.33 ± 2.18 mm/s
same,Time (time of movement),[2],884.15 ± 154.86 s
